Values joined by “and” are separate entries in the source; they are usually repeats but may differ in a detail not shown here. Equal entries are not always repeated.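 Each compound was tested at five concentrations against cells in 96-well plates for 48 hours. The concentration for 50% growth inhibition is given as GI50. Definition used: TGI = concentration required for complete inhibition of growth.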
Legend:
Test in all cases: NCI-60 cell line screen, 48 h
[1] = test system: HS 578T breast
[2] = test system: IGROV1 ovarian
[3] = test system: MALME-3M melanoma
[4] = test system: U251 CNS
[5] = test system: NCI/ADR-RES ovarian
[6] = test system: RXF 393 renal
[7] = test system: MCF7 breast
[8] = test system: SF-539 CNS
[9] = test system: SW-620 colon
[10] = test system: OVCAR-4 ovarian

SMILES	GI50 [1]	TGI [1]	GI50 [2]	TGI [2]	GI50 [3]	TGI [3]	GI50 [4]	TGI [4]	GI50 [5]	TGI [5]	GI50 [6]	TGI [6]	GI50 [7]	TGI [7]	GI50 [8]	TGI [8]	GI50 [9]	TGI [9]	GI50 [10]	TGI [10]
CCN(Cc1ccccc1)C1CCN(Cc2cc(Br)ccc2O)CC1	57.2 µM	> 100 µM	> 100 µM	> 100 µM	24 µM	53 µM	32.5 µM	> 100 µM	31.9 µM	> 100 µM	17.5 µM	94.6 µM	27.8 µM	> 100 µM	36.7 µM	> 100 µM	27.2 µM	> 100 µM	33.7 µM	> 100 µM
COc1ccc(Cc2coc3ccccc3c2=O)cc1OC		> 100 µM		> 100 µM		> 100 µM		> 100 µM		> 100 µM		> 100 µM		> 100 µM		> 100 µM		> 100 µM		> 100 µM
CC(C)(C)C1CCC2c3c([nH]c4ccccc34)C3C(=O)N(c4ccc(Cl)cc4)C(=O)C3C2C1 (stereo not drawn)	> 100 µM	> 100 µM	> 100 µM	> 100 µM		> 10 µM	56.5 µM and > 10 µM	> 100 µM	51.3 µM and > 10 µM	> 100 µM	48.5 µM and > 10 µM	> 100 µM		99.6 µM	> 100 µM	> 100 µM	53.9 µM and > 10 µM	> 100 µM	59.5 µM and > 10 µM	> 100 µM
CC1=C(SCCC(=O)OC(C[Se]C2=C(C)C(=O)c3ccccc3C2=O)C(=O)NCCCCCC(=O)OCc2ccccc2)C(=O)c2ccccc2C1=O (stereo not drawn)	7.6 µM	> 100 µM	2.13 µM	14.5 µM	2.07 µM	6.96 µM	4.09 µM	13.6 µM	4.59 µM	18.3 µM	14.9 µM	28.3 µM	4.75 µM	29.6 µM	4.49 µM	15.3 µM	2.43 µM	9.34 µM	12.3 µM	25.1 µM
CNC(=O)c1cc(Oc2ccc(NC(=O)Nc3ccc(Cl)c(C(F)(F)F)c3)c(F)c2)ccn1	1.59 µM and 1.61 µM	16.9 µM and > 10 µM	2.75 µM and 1.85 µM	11.2 µM and > 10 µM	0.76 µM and 1.95 µM	5.87 µM and > 10 µM	2.79 µM and 2.46 µM	11.3 µM and > 10 µM	2.67 µM and 2.44 µM	9.81 µM and > 10 µM	3.83 µM and 2.91 µM	17 µM and > 10 µM	2.12 µM and 2.29 µM	6.88 µM and 9.02 µM	2.15 µM and 1.45 µM	10.7 µM and > 10 µM	2.23 µM and 2.47 µM	14.9 µM and > 10 µM	2.56 µM and 2.74 µM	19.7 µM and > 10 µM
NC(=O)c1cc([N+](=O)[O-])c(Cl)c([N+](=O)[O-])c1Cl	1.98 µM	4.98 µM	0.625 µM	7.73 µM	1.74 µM	4.52 µM	1.2 µM	2.49 µM	2.01 µM	4.93 µM	1.15 µM	2.39 µM	0.893 µM	2.64 µM	1.99 µM	3.79 µM	0.291 µM	1.07 µM	1.77 µM	3.19 µM
Nc1ccc(C(=O)N/C(=C\c2cccc([N+](=O)[O-])c2)c2nc3[nH]c(=S)[nH]c(=O)c3[nH]2)cc1		> 91.2 µM		> 100 µM		> 100 µM		> 85.6 µM		> 100 µM		55.9 µM		> 100 µM		67 µM		> 100 µM		> 100 µM
NCCCC[C@@H]1NC(=O)[C@H](CC(=O)O)NC(=O)CNC(=O)[C@H](CCCN=C(N)N)NC(=O)[C@@H](N)CSSC[C@@H](C(=O)O)NC(=O)[C@H](CC(=O)O)NC(=O)[C@@H]2CCCN2C(=O)CNC1=O	> 100 µM	> 100 µM	> 100 µM	> 100 µM	> 100 µM	> 100 µM	> 100 µM	> 100 µM	> 100 µM	> 100 µM	> 100 µM	> 100 µM	> 100 µM	> 100 µM	> 100 µM	> 100 µM	> 100 µM	> 100 µM	> 100 µM	> 100 µM
Cc1cccc2nc3ccccc3c(Nc3ccc(NS(C)(=O)=O)cc3)c12	8.88 µM	31.7 µM	4.3 µM	38.6 µM	4.99 µM	19.4 µM	3.15 µM	13.5 µM	15.8 µM	48.8 µM	10.8 µM	23.6 µM	3.62 µM	21.7 µM	10.3 µM	22.8 µM	4.27 µM	20.3 µM	13 µM	49.5 µM
CCC(C)[C@H](NC(=O)Nc1cc(C(F)(F)F)cc(C(F)(F)F)c1)C(=O)N[C@@H](Cc1cn(C)cn1)C(=O)OC (stereo partly drawn)	1.47 µM	2.61 µM	1.04 µM	2.06 µM	1.41 µM	2.01 µM	1.33 µM	1.8 µM	3.78 µM	5.57 µM	0.523 µM	0.98 µM	0.513 µM	1.08 µM	1.32 µM	1.83 µM	0.69 µM	1.53 µM	0.599 µM	1.12 µM
CC(C)(C)c1ccc(Oc2ccc(N)cn2)cc1	43.9 µM	> 100 µM	> 100 µM	> 100 µM	39.7 µM	> 100 µM	49.2 µM	> 100 µM	51.6 µM	> 100 µM	49.6 µM	> 100 µM	46.5 µM	> 100 µM	18.8 µM	> 100 µM	> 100 µM	> 100 µM	32.8 µM	> 100 µM
Nc1nc([Se])c2ncn(C3OC(CO)C(O)C3O)c2n1 (stereo not drawn)	4.71 µM	> 100 µM	25.9 µM	> 100 µM	> 100 µM	> 100 µM	73.3 µM	> 100 µM	5.57 µM	> 100 µM	> 100 µM	> 100 µM	4.09 µM	> 100 µM	19.3 µM	> 100 µM	28.8 µM	> 100 µM	27.4 µM	> 100 µM
COc1ccc(CN2c3ccccc3Sc3ccccc32)c(C(F)(F)F)c1	0.877 µM	> 100 µM	3.43 µM	> 100 µM	21 µM	> 100 µM	0.431 µM	27.4 µM	0.462 µM	3.16 µM	0.38 µM	6.55 µM	0.349 µM	36.8 µM	0.452 µM	3.89 µM	0.443 µM	> 100 µM	2.17 µM	> 100 µM
CCOCCCn1c2c(c3c(O)cccc31)C(=O)c1ccccc1-2	32.8 µM	82.3 µM	17.1 µM	48.7 µM	14.7 µM	37.1 µM	23.7 µM	62.5 µM	20.8 µM	56.5 µM	30.3 µM	82.1 µM	32.6 µM	> 100 µM	24.7 µM	63.3 µM	28.4 µM	> 100 µM	21.3 µM	69.3 µM
CCOC(=O)Oc1cc2c(c(OC)c1OC)-c1ccc(OC)c(=O)cc1C(NC(C)=O)CC2 (stereo not drawn)		> 100 µM		> 69.6 µM		> 100 µM		8.56 µM		> 57.9 µM		0.564 µM		> 100 µM		0.232 µM		> 100 µM		> 100 µM
CCC(C)Nc1ccc(N)cc1 (stereo not drawn)	4.35 µM	24.4 µM	4.79 µM	20.5 µM	2.65 µM	8.08 µM	3.64 µM	13 µM	10.6 µM	28 µM	4.62 µM	15.8 µM	3.41 µM	12.4 µM	5.16 µM	17.1 µM	4.16 µM	15.5 µM	3.18 µM	38.6 µM
Cc1ccccc1NC(=O)c1sc2nc(C)c(C(=O)/C=C/c3ccccc3)cc2c1N	1.77 µM	> 50 µM	0.953 µM	2.08 µM	1.43 µM	6.11 µM	0.951 µM	1.99 µM	1.5 µM	> 50 µM	0.821 µM	1.6 µM	1.5 µM	8.69 µM	0.977 µM	1.96 µM	1 µM	2.45 µM	1.42 µM	> 50 µM
CCN(CC)CCCNc1cc(OC)cc2nc3cc(Cl)ccc3nc12	2.53 µM	9.48 µM	1.96 µM	6.78 µM	1.68 µM	3.35 µM	1.22 µM	3.68 µM	1.64 µM	8.52 µM	1.25 µM	2.63 µM	1.5 µM	6.51 µM	8.36 µM	21.7 µM	0.779 µM	11.2 µM	1.67 µM	3.51 µM
COC(=O)c1ccc(CN2C(=O)C(Cl)=C(Nc3cccc(Cl)c3C)C2=O)cc1	21 µM	95.5 µM	2.76 µM	18.5 µM	2.03 µM	9.82 µM	32.4 µM	> 100 µM	34.8 µM	> 100 µM	33.7 µM	> 100 µM	35.6 µM	> 100 µM	23.1 µM	58.7 µM	3.45 µM	26.4 µM	26.5 µM	> 100 µM
COc1ccc(C/C(=C(\C)c2ccc(OCCN3CCCC3)cc2)c2ccc(OCCN3CCCC3)cc2)cc1	2.17 µM	4.83 µM	1.87 µM	3.97 µM	1.67 µM	3.26 µM	1.8 µM	3.32 µM	1.96 µM	3.71 µM	1.48 µM	2.88 µM	1.6 µM	3.1 µM	1.8 µM	3.25 µM	1.75 µM	3.65 µM	2.08 µM	5.1 µM
CCc1ccc(CCC(=O)Nc2ncc(Cc3ccc(Cl)cc3)s2)o1	0.3 µM	27.9 µM	0.549 µM	> 100 µM	0.466 µM	> 100 µM	0.371 µM	> 100 µM	0.335 µM	> 75.3 µM	0.226 µM	0.675 µM	0.328 µM	> 100 µM	0.245 µM	0.727 µM	0.375 µM	> 100 µM	> 100 µM	> 100 µM
O=C(Nc1ccccc1)Nc1ccc2cc3ccc(NC(=O)Nc4ccccc4)cc3nc2c1	1.53 µM	3.47 µM	1.66 µM	4.3 µM	1.54 µM	3.06 µM	0.978 µM	2.28 µM	68.7 µM	> 100 µM	1.49 µM	3.61 µM	1.08 µM	3.14 µM	1.63 µM	3.01 µM	0.331 µM	1.19 µM	1.12 µM	2.42 µM

Reference: PubChem BioAssay (NCI)
